These are literature values, as cited in publication PMC7583271 (Journal of Insect Science, 2020).

This data set addresses antennal binding protein (PxylABP, accession no. AB189031.1). The note with it: unit inferred, ref Deng et al. 2016.

On to `C=CCN=C=S` [Allyl isothiocyanate], for which the Kd was 910 nM.

The Kd is the free concentration of one partner at which half of the binding sites on the other are occupied at equilibrium, for simple one-to-one binding.
